Data published in patent publication US9844224B2, “Bitter alkaloid containing consumables comprising bitter blockers” (GIVAUDAN SA, priority 2008, dated 2017).

How the values were obtained:
[1] = test system: alkaloid bitterness in cocoa; experiment: Tasting panel, sample vs control: reduction of alkaloid bitterness in cocoa; assay type: in vivo, human; conditions: 10% unsweetened cocoa powder in water; for bitterness of sample compared to control: room temperature
Protocol: (§1) All concentrations in % are % (wt/wt), unless otherwise indicated. A tasting panel of 5 to 8 panelists was asked to compare the bitterness of two samples (sample with trilobatin and control without) of various caffeine-containing consumables.
(§2) Different concentrations/ranges were tested, with the ones indicated being the ones with a clear bitter masking effect. While higher concentrations reach a bitter masking effect, panelists found a negative impact on the overall flavor profile at higher concentrations.
A tasting panel of 5 to 8 panelists was asked to compare and record the sensory attribute differences between two samples (sample with trilobatin and control without).
The control and sample contained 10% unsweetened cocoa powder in water (Dutch processed dark cocoa powder, commercially available from Hersheys), the sample additionally contained 0.0005% trilobatin.
The samples were served at room temperature.
A tasting panel of 5 to 8 panelists was asked to compare and record the sensory attribute differences between two samples (sample with HDG and control without).
The control and sample contained 10% unsweetened cocoa powder in water (Dutch processed dark cocoa powder, commercially available from Hersheys), the sample additionally contained 0.0020% (w/w) HDG.

[2] = test system: naringin and limonin bitterness; conditions: cited from earlier work
[3] = test system: sweet sensitive panelists; experiment: Ranking with R-index analysis: isointensity of HDG to sucrose; assay type: in vivo, human
Protocol: (§3) All examples were performed with sweet sensitive panelists able to detect at least 0.5% of sucrose or less, unless stated otherwise. The concentration detectable by the average consumer will be higher. The results were obtained using 20 panelists in two replications.
The sucrose concentration that tastes isointense in sweetness to HDG was determined using samples of 15 ppm and 20 ppm, each of which was directly compared to a sucrose sample (sucrose solutions of 0.5%, 1%, 1.5% and 2% concentration). Fifteen milliliters of each blinded sample was presented, at room temperature, in random order to 20 sweet sensitive panelists. In two replications (over 1 session), panelists were asked to rank the solutions, from least sweet to most sweet. The data was subjected to an R-index analysis.

[4] = test system: sweet sensitive panelists; experiment: Small panel ranking of HDG in water against sucrose solutions; assay type: in vivo, human
Protocol: as §3
Further three small panel testings were performed. HDG samples were prepared in concentrations of 5 ppm, 10 ppm, 15 ppm, and 20 ppm in water. All the samples were coded (presented blind) and given to the panel in random order. The panel was also presented with sucrose solutions for comparison The panel was asked to taste each sample and rank the samples from the least sweet to most sweet.

[5] = test system: alkaloid caffeine bitterness in instant coffee; experiment: Tasting panel, sample vs control: reduction of alkaloid bitterness in coffee; assay type: in vivo, human; conditions: instant coffee in water
Protocol: as §1, §2
The sample and control were instant coffee (Nescafe, Taster's choice) in water, the sample additionally contained 0.001% (10 ppm) trilobatin. All samples/controls were presented warm to the panelists.

[6] = test system: panelist trained for sweetness detection; experiment: Paired comparison of trilobatin in water versus sucrose solutions (sweetness); assay type: in vivo, human
Protocol: (§4) The sweetness detection threshold of trilobatin was determined as detailed below in 1a, 1b and 1c. All examples were performed with sweet sensitive panelists able to detect at least 0.5% of sucrose or less, unless stated otherwise. The concentration detectable by the average consumer will be higher.
Trilobatin (20 ppm, 60 ppm, 100 ppm) in water samples were evaluated for isointensity to sucrose solutions in a concentration of 0, 0.5 and 1% sucrose using a paired comparison method. Samples were paired and tasted left to right with rinsing (water) in between, by one panelist trained for sweetness detection.
The trilobatin samples were compared to either 0%, 0.5%, or 1% sucrose solutions.

[7] = test system: tannin-derived bitterness (tannic acid); experiment: Tasting panel, sample vs control: tannin bitterness in water; assay type: in vivo, human; conditions: 0.05%/500 ppm tannic acid in water; 0.000125 to 0.002% trilobatin
Text: as §1
The control and sample contained 0.05%/500 ppm tannic acid in water. The samples additionally contained 0.000125 to 0.002% trilobatin.

[8] = test system: sweet sensitive panelists; experiment: Ranking method with R-index: isointensity of trilobatin in water to sucrose; assay type: in vivo, human
Protocol: as §4
The sensory evaluation was conducted using a ranking method. Samples at ambient temperature were randomly presented in 15 ml blind aliquots (unidentifiable by panelists). Panels consisted of 15 sweet sensitive subjects and samples were presented in 2 replications over 1 session. After tasting each sample, the mouth was rinsed thoroughly with water at ambient temperature prior to tasting the next sample.
Panelists were presented with 0.5%, 1%, 1.5% and 2% sucrose solutions in water and a fifth sample of 100 ppm trilobatin in water. Subjects were asked to rank the samples from low to high with respect to perceived sweet taste. R-indices were calculated for 100 ppm trilobatin versus either 0.5%, 1%, 1.5% or 2% sucrose.
The sensory evaluation was conducted using the method described in example 1b. The panels consisted of 7 sweet sensitive panelists. Panelists were presented with 0.5%, 1%, and 1.5% sucrose solutions in water and a fourth sample of 200 ppm trilobatin in water. Panelists were asked to rank the samples from low to high with respect to perceived sweet taste.

[9] = test system: alkaloid bitterness in caffeine containing energy drinks; experiment: Tasting panel, sample vs control: reduction of alkaloid bitterness in an energy drink; assay type: in vivo, human; conditions: Redbull and Xenergy energy drinks, 0.0005% trilobatin
Protocol: as §1, §2
The control and sample were caffeine containing energy drinks, the sample additionally contained 0.0005% trilobatin.
The tested caffeine containing energy drinks were sucrose-sweetened glucoronlactone and taurin containing Redbull™ energy drink, and Xenergy™ (Zyions Inc., USA) which is sucralose/Acesulfame-K sweetened and contains vitamin B, calcium, taurine and glucoronlactone.

caffeine bitterness = experiment: Tasting panel, sample vs control: reduction of caffeine bitterness in water; assay type: in vivo, human; conditions: 200 ppm caffeine in water
Protocol: as §1, §2
The control and sample contained 0.02 or 200 ppm % caffeine in water, the sample additionally contained 0.000125 to 0.0020 trilobatin.

[10] = test system: alkaloid bitterness in brewed black tea; experiment: Tasting panel, sample vs control: reduction of alkaloid bitterness in tea; assay type: in vivo, human; conditions: 0.001% trilobatin, warm, most panelists
Protocol: as §1, §2
Sample and control were brewed black tea (tea bags, Lipton), the sample additionally contained 0.001% trilobatin which was added to the brewed tea.
Samples and controls were served warm.

SMILES: COc1ccc(CCC(=O)c2c(O)cc(O[C@@H]3O[C@H](CO)[C@@H](O)[C@H](O)[C@H]3O)cc2O)cc1O [HDG, 1-[4-(beta-D-glucopyranosyloxy)-2,6-dihydroxyphenyl]-3-(3-hydroxy-4-methoxyphenyl)-1-propanone]
- bitter aftertaste ([1]; 0.0020% (w/w) HDG): bitter aftertaste that remained
- cocoa aroma ([1]; 0.0020% (w/w) HDG): keep their cocoa aroma
- purine alkaloid bitterness (theobromine, caffeine) in the middle ([1]; 0.0020% (w/w) HDG): reduced
- bitterness of sample compared to control ([1]; 0.0020% (w/w) HDG): less bitter
- suppression of naringin and limonin bitterness ([2]; concentrations at or below the sweet taste detection threshold of HDG): not
- naringin and limonin bitterness ([2]; high suprathreshold concentration (ratio taste units sweetener to bitter compound at least 2:1)): suppress
- sample sweetness (HDG, 15 ppm) ([3]; vs 0.5% sucrose): sweeter
- sample sweetness (HDG, 20 ppm) ([3]; vs 0.5% sucrose): Sweeter
- sample sweetness (HDG, 15 ppm) ([3]; vs 1.0% sucrose): less sweet
- sample sweetness (HDG, 20 ppm) ([3]; vs 1.0% sucrose): Isosweet
- sample sweetness (HDG, 15 ppm) ([3]; vs 1.5% sucrose): less sweet
- sample sweetness (HDG, 20 ppm) ([3]; vs 1.5% sucrose): Less sweet
- sample sweetness (HDG, 15 ppm) ([3]; vs 2.0% sucrose): less sweet
- sample sweetness (HDG, 20 ppm) ([3]; vs 2.0% sucrose): Less sweet
- Rank and taste ([4]; 5 ppm HDG in water): 1 - not sweet
- Isointensity to sucrose ([4]; 10 ppm HDG in water): 0.5 % sucrose
- Rank and taste ([4]; 10 ppm HDG in water): 2 - very slightly sweet
- Isointensity to sucrose ([4]; 15 ppm HDG in water): 0.75% sucrose
- Rank and taste ([4]; 15 ppm HDG in water): 3 - slightly sweet
- Rank and taste ([4]; 20 ppm HDG in water): 4 - sweet
- sweetness threshold detected by sweet sensitive individuals ([4]; HDG in water): about 10 ppm
- sweet taste detection threshold relative to that of trilobatin ([4]; in vivo): about 10 times less

SMILES: O=C(CCc1ccc(O)cc1)c1c(O)cc(O[C@@H]2O[C@H](CO)[C@@H](O)[C@H](O)[C@H]2O)cc1O [trilobatin, 1-[4-(beta-D-glucopyranosyloxy)-2,6-dihydroxyphenyl]-3-(4-hydroxyphenyl)-1-propanone]
- alkaloid bitterness in the middle and towards the end of the temporal bitterness profile ([1]; 0.0005% trilobatin): markedly reduced
- bitter aftertaste ([1]; 0.0005% trilobatin): no bitter aftertaste
- cocoa aroma ([1]; 0.0005% trilobatin): keep their cocoa aroma
- bitterness of sample compared to control ([1]; 0.0005% trilobatin): less bitter
- concentration at which suppression of coffee flavor starts [5]: about 20 ppm
- concentration at which the coffee flavor is significantly affected [5]: ≥ 50 ppm
- alkaloid caffeine bitterness in the middle and towards the end of the temporal bitterness profile ([5]; 0.001% (10 ppm) trilobatin): markedly reduced
- bitter aftertaste ([5]; 0.001% (10 ppm) trilobatin): no bitter aftertaste
- bitterness of sample compared to control ([5]; 0.001% (10 ppm) trilobatin, warm): less bitter
- Taste of trilobatin samples compared to sucrose ([6]; 20 ppm trilobatin in water vs 0% sucrose): isosweet
- Taste of trilobatin samples compared to sucrose ([6]; 20 ppm trilobatin in water vs 0.5% sucrose): notably less sweet
- Taste of trilobatin samples compared to sucrose ([6]; 60 ppm trilobatin in water vs 0% sucrose): weakly sweeter
- Taste of trilobatin samples compared to sucrose ([6]; 60 ppm trilobatin in water vs 0.5% sucrose): less sweet
- Taste of trilobatin samples compared to sucrose ([6]; 100 ppm trilobatin in water vs 0% sucrose): sweeter
- Taste of trilobatin samples compared to sucrose ([6]; 100 ppm trilobatin in water vs 0.5% sucrose): isosweet
- Taste of trilobatin samples compared to sucrose ([6]; 100 ppm trilobatin in water vs 1% sucrose): less sweet
- bitterness of samples and control [7]: similarly bitter
- sample sweetness (trilobatin, 100 ppm) ([8]; vs 0.5% sucrose): Isosweet
- sample sweetness (trilobatin, 100 ppm) ([8]; vs 1.0% sucrose): Less sweet
- sample sweetness (trilobatin, 100 ppm) ([8]; vs 1.5% sucrose): Less sweet
- sample sweetness (trilobatin, 100 ppm) ([8]; vs 2.0% sucrose): Less sweet
- bitter aftertaste [9]: slight bitter aftertaste remains
- bitterness in the middle of the temporal pattern [9]: very effectively blocked
- bitterness of sample compared to control [9]: less bitter
- caffeine bitterness reduced compared to the control (caffeine bitterness; 0.000125% (1.25 ppm) trilobatin): not
- caffeine bitterness compared to the control (caffeine bitterness; 0.0005% (5 ppm) up to 0.0020 (20 ppm) trilobatin): reduced
- bitterness of sample compared to control [10]: slightly less bitter
